# “Also recorded” adds a separate entry of the source.
# Assays:
# Panx1 channel = molecular target: T1, Panx1 channel (Mus musculus, UniProt Q9JIP4); assay: YO-PRO-1 dye uptake assay in BV-2 microglia-like cells (BzATP stimulation); type: cell-based; conditions: BV-2 cells
# T1 construct: endogenous in cells; host or cells: BV-2 microglia-like cells
# Description: After plating into 96 well plates, cell culture media was removed and BV-2 cells were incubated in extracellular solution (ECS) (140 mM NaCl, 4.5 mM KCl, 1.3 mM CaCl2, 10 mM HEPES, and 33 mM glucose; pH7.35, osmolarity 315 mOsm) containing YO-PRO-1 dye (2.5 μM, Invitrogen). After a 5 minute baseline recording, cells were stimulated with 3′-O-(4-benzoyl)benzoyl adenosine 5′-triphosphate (BzATP) (150 μM, Toronto Research Chemicals) and dye-uptake was recorded for 30 minutes. Cell viability was assessed immediately after the 30 minute recording by application of ionomycin (1 μM, Sigma). […] YO-PRO-1 fluorescent emission (491/509) was detected using a FilterMax F5 plate reader (Molecular Devices). Drugs used include (−)-norepinephrine (100 pM-1 μM, Sigma), probenecid (1 mM, Life Technologies), and Compound 1 (10 nM, Derksen et al). Drugs were bath applied in ECS containing YO-PRO-1 dye and incubated at 37° C. for 10 minutes prior to BzATP stimulation. Fluorescent emission at 30 minutes post-BzATP was calculated as an average of the entire imaging field as percent change from baseline, and responses at 30 minutes were averaged over multiple independent experiments. Individual traces of BV-2 YO-PRO-1 dye uptake were taken at 10 minute intervals and represent the average response of all BV-2 cells in the recorded view from a subset of experiments.
# BV-2 microglia-like cells were maintained in DMEM (Gibco) containing 5% fetal bovine serum (Gibco) and 1% penicillin-streptomycin (Gibco) with 5% CO2.
# The compounds tested were designed to more readily penetrate the blood brain barrier and were therefore predicted to require a lower dose to produce similar effects. Prior to testing the compounds in animals, the compounds were first tested in BV2 microglia-like cells using the YO-PRO-1 Dye Uptake Assay. By using this assay, Panx1 channel activity in response to BzATP stimulation of P2X7, an upstream receptor that causes Panx1 pore formation can be assessed. YO-PRO-1 is a large molecular weight dye that can only enter the cell through large pore ion channels such as Panx1, therefore its uptake correlates with Panx1 channel opening. BzATP stimulation causes a significant increase in YO-PRO-1 dye uptake in cells pre-treated with ECS and vehicle solution (0.1% DMSO) (FIG. 1, B).
# Long Evans rats = assay: Morphine self-administration, extinction and cue-induced reinstatement (opioid seeking); type: in vivo
# Description: Adult (8 to 10 weeks old at the beginning of the experiments) wild-type male and female Long Evans rats (250-350g) were used. Animals were group housed prior to jugular vein catheter implant surgery with two to three animals per cage on a 12/12 hours dark/light cycle (lights on at 7:00 AM). Rats were acclimated to the animal facility holding rooms for at least 7 days before any manipulation. After catheter implantation, animals were single housed to prevent damage to the harnesses. All experiments were performed during the light cycle. Rats received food and water ad libitum until 2 days prior to starting the behavioral studies, when food restriction (16 g of rat chow per day) started and continued until the end of the experiments.
# All surgeries were performed under isoflurane (2.5/3 MAC) anesthesia using sterile aseptic techniques. For intravenous (IV) self-administration (SA), animals were implanted with sterile catheters in the right jugular vein and connected to a harness placed over the torso. The harness allowed for minimal stress while connecting and disconnecting the animal from infusion lines. The catheter was kept patent by daily infusions of gentamicin mixture (1.33 mg/ml).
# Equipment: Rat self-administration was conducted using operant-conditioning chambers (Med Associates) equipped with two retractable levers with a food magazine connected to a food pellet dispenser between them. Two cue lights were positioned above the levers, and one house light was positioned on the top left-hand wall. During self-administration sessions both levers (correct and incorrect lever) were extended out with white cue light turned on only above the correct lever. […]
# All experiments were performed at least twice, including each treatment condition to prevent an unspecific day/condition effect. […] All data are expressed as mean±SEM. […] After assessing the normality of sample data using Shapiro-Wilk test, statistical significance was determined by two-way repeated-measures ANOVA followed by two-tailed Sidak post hoc test. Data was analyzed using GraphPad Prism 8.1.0.
# T1 sequence (Q9JIP4 whole entry): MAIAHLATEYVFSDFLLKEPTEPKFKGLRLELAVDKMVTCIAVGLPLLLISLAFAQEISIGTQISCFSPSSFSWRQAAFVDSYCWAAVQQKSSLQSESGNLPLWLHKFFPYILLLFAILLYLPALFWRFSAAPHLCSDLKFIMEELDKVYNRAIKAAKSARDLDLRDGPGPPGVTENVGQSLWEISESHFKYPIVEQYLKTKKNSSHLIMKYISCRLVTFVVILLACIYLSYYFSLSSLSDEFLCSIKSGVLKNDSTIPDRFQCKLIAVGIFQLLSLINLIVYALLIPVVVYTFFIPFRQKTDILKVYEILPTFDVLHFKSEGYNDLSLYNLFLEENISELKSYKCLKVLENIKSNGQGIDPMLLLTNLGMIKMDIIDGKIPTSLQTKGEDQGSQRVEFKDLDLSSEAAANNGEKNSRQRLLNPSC
compound,measurement,setting,value
"CCCN(CCC)S(=O)(=O)c1ccc(C(O)(C(F)(F)F)C(F)(F)F)cc1 [Compound 1, 4-(1,1,1,3,3,3-hexafluoro-2-hydroxypropan-2-yl)-N,N-dipropylbenzenesulfonamide]",Potency at inhibiting Panx1 channel opening relative to probenecid,Panx1 channel,more potent than probenecid
same,"Concentration blocking Panx1 channel activity, fold lower than probenecid",Panx1 channel; Compound 1 10 nM vs probenecid 1 mM,"100,000 fold"
same,Panx1 channel activity (BzATP-stimulated YO-PRO-1 dye uptake),"Panx1 channel; Compound 1 10 nM, 10 min pre-treatment, BzATP 150 μM, 30 min",significantly blocked
same,Extinction of morphine seeking behaviour (lever pressing),"Long Evans rats; 0.5 mg/kg i.p. 1 hour prior to each extinction session, vs saline",did not show a reduction in time required for extinction; also recorded: no difference was observed
same,"Lever presses (morphine seeking) during reinstatement, all animals","Long Evans rats; 0.5 mg/kg i.p. during extinction, before reinstatement, or both, vs saline",significant reduction in the number of lever presses; also recorded: rescued
same,"Lever presses (morphine seeking) during reinstatement, female rats","Long Evans rats; 0.5 mg/kg i.p. during extinction, first day of reinstatement, or both, females",decreased the number of lever presses; also recorded: reversed

# Source: patent US20240166596A1, “SULFAMOYL BENZENE DERIVATIVES AND USES THEREOF” (AphioTx Inc., priority 2021, published 2024)
